According to US20230263768A1, “WATER-SOLUBLE ARTESUNATE-BASED THERAPY FOR CORONAVIRUS INFECTION” (priority 2020, published 2023):

Experiments:
[1] = Solubility of artesunate formulations in simulated gastric fluid; assay type: physicochemical; settings: 0.5 g in 10 mL SGF pH 1.2, 36.5° C., 100 rev/min, after 30 minutes
Experimental: An amount of 0.5 g of different artesunate formulations (untreated artesunate, sodium Artesunate, Artesunate/SG complex and WSA powders) are dispersed in 10 mL of simulated gastric fluid (SGF, pH 1.2). All solutions are incubated at 36.5° C. under mild shaking with (100 rev/min) in a G24 Environmental Incubator Shaker (New Brunswick Scientific Co., NJ, USA).

[2] = system: SARS-CoV-2 (isolate USA-WA1-2020); assay: SARS-CoV-2 replication in VERO E6 cells, viral RNA by qPCR (Ct) after 48 h; assay type: cell-based
[3] = Example 4, 160 µg/mL, 48 h, VERO E6

## C[C@@H]1CCC2[C@@H](C)[C@H](OC(=O)CCC(=O)O)OC3O[C@]4(C)CCC1[C@]32OO4 (stereo partly drawn) [untreated Artesunate, Artesunate]
[1]
  appearance of the solution / precipitation in SGF: milky appearance, with an important precipitation at the bottom of vial

## C[C@H]1[C@H](OC(=O)CCC(=O)[O-])O[C@@H]2O[C@@]3(C)CC[C@H]4[C@H](C)CC[C@@H]1[C@@]24OO3.[Na+] [Sodium Artesunate]
[1]
  appearance of the solution / precipitation in SGF: cloudy, but no evident precipitation is observed
[2]; [3]
  Cycle Threshold Value (quantity of viral RNA): 22.5
  antiviral activity (in words): Low antiviral activity
[2]; Example 4, 160 µg/mL, 48 h, VERO E6, listed as sodium artesunate
  Cycle Threshold Value (quantity of viral RNA): about 23

## CCCc1nc2c(C)cc(-c3nc4ccccc4n3C)cc2n1Cc1ccc(-c2ccccc2C(=O)O)cc1 [Telmisartan]
[2]; Example 6, dose response and combination with Telmisartan
  antiviral activity (in words): No activity antiviral is observed
